In patent publication US20090099167A1, “Organic compounds” (Novartis Institutes for Biomedical Research, priority 2004, published 2009):
Where two headings read alike, the source gives them in different places.

Legend:
human EphB4 receptor = molecular target: T1, human EphB4 receptor (Homo sapiens, UniProt P54760); assay: EphB4 kinase assay, GST-EphB, 33P incorporation into poly(Glu,Tyr); type: biochemical
T1 construct: made in house; host or cells: Sf9 or Sf21 (baculovirus)
T1 sequence (P54760 566-987): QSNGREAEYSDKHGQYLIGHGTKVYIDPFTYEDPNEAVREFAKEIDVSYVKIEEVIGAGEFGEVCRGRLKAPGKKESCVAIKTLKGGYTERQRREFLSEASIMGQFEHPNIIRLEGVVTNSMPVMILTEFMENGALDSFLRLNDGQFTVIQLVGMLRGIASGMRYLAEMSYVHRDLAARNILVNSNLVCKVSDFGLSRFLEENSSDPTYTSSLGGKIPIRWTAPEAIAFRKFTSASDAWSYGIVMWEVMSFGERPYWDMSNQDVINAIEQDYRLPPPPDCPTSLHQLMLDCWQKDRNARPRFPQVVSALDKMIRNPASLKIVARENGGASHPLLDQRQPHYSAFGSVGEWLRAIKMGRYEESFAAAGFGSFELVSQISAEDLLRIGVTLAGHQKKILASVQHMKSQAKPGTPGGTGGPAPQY
Text: EphB4: Production and measure of enzymatic activity: Generation of Bac-to-Bac™ (Initrogen Life Technologies, Basel, Switzerland) GST-fusion expression vectors: Entire cytoplasmatic coding regions of the EphB-class are amplified by PCR from cDNA libraries derived from human placenta or brain, respectively. Recombinant baculovirus are generated that express the amino acid region 566-987 of the human EphB4 receptor (SwissProt Database, Accession No. P54760). GST sequence is cloned into pFastBac1® vector (Invitrogen Life Technologies, Basel, Switzerland) and PCR amplified. cDNAs encoding EphB4-receptor domains, respectively, are cloned in frame 3′prime to the GST sequence into this modified FastBac1 vector to generate pBac-to-Bac™ donor vectors. Single colonies arising from the transformation are inoculated to give overnight cultures for small scale plasmid preparation. […] By automated sequencing the inserts and approximately 50 bp of the flanking vector sequences are confirmed on both strands. Production of viruses: Viruses for each of the kinases are made according to the protocol supplied by GIBCO if not stated otherwise. In brief, transfer vectors containing the kinase domains are transfected into the DH10Bac cell line (GIBCO) and plated on selective agar plates. Colonies without insertion of the fusion sequence into the viral genome (carried by the bacteria) are blue. Single white colonies are picked and viral DNA (bacmid) isolated from the bacteria by standard plasmid purification procedures. Sf9 cells or Sf21 cells are then transfected in 25 cm2 flasks with the viral DNA using Cellfectin reagent according to the protocol. Purification of GST-tagged kinases: The centrifuged cell lysate is loaded onto a 2 mL glutathione-sepharose column (Pharmacia) and washed three times with 10 mL of 25 mM Tris-HCl, pH 7.5, 2 mM EDTA, 1 mM DTT, 200 mM NaCl. The GST-tagged proteins are then eluted by 10 applications (1 mL each) of 25 mM Tris-HCl, pH 7.5, 10 mM reduced-glutathione, 100 mM NaCl, 1 mM DTT, 10% Glycerol and stored at −70° C. Protein kinase assays: The activities of protein kinases are assayed in the presence or absence of inhibitors, by measuring the incorporation of 33P from [γ33P]ATP into a polymer of glutamic acid and tyrosine (poly(Glu,Tyr)) as a substrate. The kinase assays with purified GST-EphB (30 ng) are carried out for 15-30 min at ambient temperature in a final volume of 30 μL containing 20 mM Tris.HCl, pH 7.5, 10 mM MgCl2, 3-50 mM MnCl2, 0.01 mM Na3VO4, 1% DMSO, 1 mM DTT, 3 μg/mL poly(Glu,Tyr) 4:1 (Sigma; St. Louis, Mo., USA) and 2.0-3.0 μM ATP (γ-[33P]-ATP 0.1 μCi). The assay is terminated by the addition of 20 μL of 125 mM EDTA. Subsequently, 40 μl of the reaction mixture are transferred onto Immobilon-PVDF membrane (Millipore, Bedford, Mass., USA) previously soaked for 5 min with methanol, rinsed with water, then soaked for 5 min with 0.5% H3PO4 and mounted on vacuum manifold with disconnected vacuum source. After spotting all samples, vacuum is connected and each well rinsed with 200 μl 0.5% H3PO4. Membranes are removed and washed 4× on a shaker with 1.0% H3PO4, once with ethanol. Membranes are counted after drying at ambient temperature, mounting in Packard TopCount96-well frame, and addition of 10 μL/well of Microscint™ (Packard). IC50 values are calculated by linear regression analysis of the percentage inhibition of each compound in duplicate, at four concentrations (usually 0.01, 0.1, 1 and 10 μM). One unit of protein kinase activity is defined as 1 nmole of 33P ATP transferred from [γ33P] ATP to the substrate protein per minute per mg of protein at 37° C. Compounds of formula I show EphB4 inhibition down to 10 nM, preferably IC50 values between 0.01-1.0 μM.

Cdk1/cycB = Cdk1/cycB (UniProt P06493); assay: Cdk1/cycB kinase assay, histone H1 substrate; type: biochemical, starfish; settings: Table 4; read-out: Cdk1, activity (IC50 for kinase inhibition)
Protocol: The inhibition of Cdk1 can be determined as follows: Cdk1/cycB: Cdk1/cycB are obtained from ProQinase, Freiburg, Germany. Starfish oocytes are induced to enter M phase of the cell cycle with 10 μM 1-methyladenine and frozen in liquid nitrogen and stored at −80° C. […] Briefly, the supernatant from oocytes is equilibrated for 30 min at 4° C. under constant rotation with the p9^CKShs-sepharose beads. The beads are extensively washed and active cdk1/cycB kinase is eluted with purified p9^CKShs (3 mg/ml). […] The assay is carried with slight modifications in 96-well plates at ambient temperature for 20 min. […] The reaction is terminated by addition of 25 μl 0.05 M EDTA pH 7.0. An aliquot of 40 μl is spotted with a multichannel dispenser on Immobilon P membranes mounted in a Millipore Microtiter filter manifold connected to a low vacuum source. After elimination of liquid, the membrane is transferred to a sequence of 4 washing baths containing 0.5% H3PO4 and one with EtOH (shaking incubation for 10 min each), dried, mounted onto a Hewlett Packard TopCount manifold added 10 μl Microscint® and counted. […] Cells were seeded at 2.5×10^7 cells per 150 mm dish and allowed to attach to a 150 mm dish for 1 hr at RT. Media (SF900II containing 10% FBS) is aspirated and recombinant baculovirus; GST-C-Raf-1, v-Ras and v-Src are added at MOI of 3.0, 2.5 and 2.5 receptively in a total volume of 4-5 mL. Cells are incubated for 1 hr at RT and then 15 mL of medium is added. Infected cells are incubated for 48-72 hr at 27° C. Infected Sf21 cells are scraped and collected into a 50 mL tube and centrifuged for 10 min at 4° C. at 1100 g in a Sorvall centrifuge. The cell pellet is washed once with ice cold PBS and lysed with 0.6 mL lysis buffer per 2.5×10^7 cells. Complete lysis of cells is achieved after 10 min on ice with occasional pipetting. […] GST-c-Raf-1 was allowed to bind to the beads at 4° C. for 1 hr with rocking. Bound GST-c-Raf-1 with beads was transferred to a column. The column is washed once with lysis buffer and twice with ice cold Tris buffered saline. Ice cold elution buffer is added and column flow is stopped to allow the free glutathione to disrupt the interaction of GST-c-Raf-1 with glutathione sepharose beads. Fractions (1 mL) are collected into pre-chilled tubes. Each tube contains 10% glycerol (final concentration) to maintain kinase activity during freeze thaw cycles. Purified fractions of GST-c-Raf-1 kinase protein are stored at −80° C.

Structure (SMILES) | melting point | other results
CN(C)c1ccc(-c2cnn3c(N)c(-c4ccc(NS(=O)(=O)c5cccc(Cl)c5Cl)cc4)cnc23)cc1 [Example 10, N-{4-[7-Amino-3-(4-dimethylamino-phenyl)-pyrazolo[1,5-a]pyrimidin-6-yl]-phenyl}-2,3-dichloro-benzenesulfonamide] | 143 to 146 °C | 
Cn1cc(-c2cnn3c(N)c(-c4cccc(O)c4)cnc23)c2ccccc21 [Example 45, 3-[7-Amino-3-(1-methyl-1H-indol-3-yl)-pyrazolo[1,5-a]pyrimidin-6-yl]-phenol] |  | IC50 (human EphB4 receptor; Table 4, read-out: EphB4, activity (IC50 for kinase inhibition)): < 10 µM
COc1cccc(-c2cnc3c(-c4ccc(N5CCN(C)CC5)cc4)cnn3c2N)c1 [Example 2, 6-(3-Methoxy-phenyl)-3-[4-(4-methyl-piperazin-1-yl)-phenyl]-pyrazolo[1,5-a]pyrimidin-7-ylamine] |  | IC50 (Cdk1/cycB): < 10 µM
CCN(CC)C1CCN(c2cccc(-c3cnn4c(N)c(-c5ccc(F)cc5)c(C)nc34)c2)CC1 [Example 105, 3-[3-(4-Diethylamino-piperidin-1-yl)-phenyl]-6-(4-fluoro-phenyl)-5-methyl-pyrazolo[1,5-a]pyrimidin-7-ylamine] | 208 to 210 °C | 
COc1ccc(N2CCN(C)CC2)cc1-c1cnn2c(N)c(-c3cccc(Cl)c3)c(C)nc12 [Example 74, 6-(3-Chloro-phenyl)-3-[2-methoxy-5-(4-methyl-piperazin-1-yl)-phenyl]-5-methyl-pyrazolo[1,5-a]pyrimidin-7-ylamine] | 116 to 121 °C | IC50 (human EphB4 receptor; Table 5, read-out: EphB4, IC50 class): < 1 µM
CN1CCN(c2cccc(-c3cnn4c(N)c(-c5ccccc5O)cnc34)c2)CC1 [Example 37, 2-{7-Amino-3-[3-(4-methyl-piperazin-1-yl)-phenyl]-pyrazolo[1,5-a]pyrimidin-6-yl}-phenol] |  | IC50 (Cdk1/cycB): < 10 µM
CCN(CC)C1CCN(c2cccc(-c3cnn4c(N)c(-c5cccc(Cl)c5)c(C)nc34)c2)CC1 [Example 104, 6-(3-Chloro-phenyl)-3-[3-(4-diethylamino-piperidin-1-yl)-phenyl]-5-methyl-pyrazolo[1,5-a]pyrimidin-7-ylamine] | 163 to 168 °C | 
CN(C)c1ccc(-c2cnn3c(N)c(-c4ccc(OS(=O)(=O)c5ccc(Cl)cc5)cc4)cnc23)cc1 [Example 11, 4-Chloro-benzenesulfonic acid 4-[7-amino-3-(4-dimethylamino-phenyl)-pyrazolo[1,5-a]pyrimidin-6-yl]-phenyl ester] | 186 to 188 °C | 
